Values quoted from earlier work as cited in US9533949B2, “Processes for the preparation of 3-alkyl indoles” (APOTEX PHARMACHEM INC., priority 2012, dated 2017).

Assays:
[1] = target: insulin receptor (Homo sapiens, UniProt P06213)
[2] = target: T1, insulin-like growth factor-I receptor (IGF-1R) (Homo sapiens, UniProt P08069); conditions: allosteric inhibitor
[3] = target: T1, insulin-like growth factor-I receptor (IGF-1R); conditions: allosteric inhibitor; remark: listed apart in the source
[4] = target: D2 receptor (Homo sapiens, UniProt P14416); conditions: selectivity to other GPCRs
Sequence of D2 receptor (P14416 whole entry): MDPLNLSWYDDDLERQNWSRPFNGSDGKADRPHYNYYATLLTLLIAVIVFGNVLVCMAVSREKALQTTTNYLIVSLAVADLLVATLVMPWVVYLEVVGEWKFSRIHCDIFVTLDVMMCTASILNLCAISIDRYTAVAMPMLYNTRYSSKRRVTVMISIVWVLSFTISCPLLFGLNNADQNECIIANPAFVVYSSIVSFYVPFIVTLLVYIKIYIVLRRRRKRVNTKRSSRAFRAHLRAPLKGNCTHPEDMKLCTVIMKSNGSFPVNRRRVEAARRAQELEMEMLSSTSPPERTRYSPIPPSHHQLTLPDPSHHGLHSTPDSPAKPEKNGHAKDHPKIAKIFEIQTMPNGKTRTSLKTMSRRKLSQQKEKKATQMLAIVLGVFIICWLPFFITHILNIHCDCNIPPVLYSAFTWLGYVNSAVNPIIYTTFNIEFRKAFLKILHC

T1 sequence (P08069 31-1367, species assumed): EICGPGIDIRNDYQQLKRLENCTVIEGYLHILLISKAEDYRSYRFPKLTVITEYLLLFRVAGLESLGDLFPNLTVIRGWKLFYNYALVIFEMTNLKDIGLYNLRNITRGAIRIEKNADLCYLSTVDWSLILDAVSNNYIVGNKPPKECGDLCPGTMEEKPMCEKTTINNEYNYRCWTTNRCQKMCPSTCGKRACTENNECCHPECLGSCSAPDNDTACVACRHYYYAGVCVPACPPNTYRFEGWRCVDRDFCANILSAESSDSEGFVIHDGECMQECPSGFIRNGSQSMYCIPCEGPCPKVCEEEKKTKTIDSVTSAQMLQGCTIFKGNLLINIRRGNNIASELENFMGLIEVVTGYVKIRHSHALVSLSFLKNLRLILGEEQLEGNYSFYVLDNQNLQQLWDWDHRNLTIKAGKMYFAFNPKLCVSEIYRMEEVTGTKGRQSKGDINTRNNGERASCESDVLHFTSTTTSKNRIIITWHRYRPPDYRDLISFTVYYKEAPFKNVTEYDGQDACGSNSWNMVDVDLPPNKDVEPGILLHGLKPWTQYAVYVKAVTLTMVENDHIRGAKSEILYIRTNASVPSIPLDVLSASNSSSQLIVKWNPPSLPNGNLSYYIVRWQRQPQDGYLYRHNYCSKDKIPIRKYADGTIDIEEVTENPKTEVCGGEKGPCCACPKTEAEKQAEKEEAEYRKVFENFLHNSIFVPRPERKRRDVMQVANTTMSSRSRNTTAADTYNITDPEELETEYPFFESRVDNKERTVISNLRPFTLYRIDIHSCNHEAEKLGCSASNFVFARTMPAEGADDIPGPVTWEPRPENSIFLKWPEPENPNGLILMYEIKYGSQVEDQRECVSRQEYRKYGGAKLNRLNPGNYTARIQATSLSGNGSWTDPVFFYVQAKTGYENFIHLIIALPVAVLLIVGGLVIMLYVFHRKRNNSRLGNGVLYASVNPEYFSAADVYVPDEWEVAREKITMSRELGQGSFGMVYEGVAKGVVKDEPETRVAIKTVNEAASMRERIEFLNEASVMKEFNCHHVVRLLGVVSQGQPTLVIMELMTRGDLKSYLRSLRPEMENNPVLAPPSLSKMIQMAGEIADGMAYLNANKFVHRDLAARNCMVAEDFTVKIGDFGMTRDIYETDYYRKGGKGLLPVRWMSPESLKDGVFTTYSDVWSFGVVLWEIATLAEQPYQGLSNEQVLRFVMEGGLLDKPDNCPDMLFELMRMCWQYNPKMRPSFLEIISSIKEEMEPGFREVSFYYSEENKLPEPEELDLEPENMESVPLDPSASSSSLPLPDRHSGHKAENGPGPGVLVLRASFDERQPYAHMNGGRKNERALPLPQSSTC
Sequence of insulin receptor (P06213 28-1382, species assumed): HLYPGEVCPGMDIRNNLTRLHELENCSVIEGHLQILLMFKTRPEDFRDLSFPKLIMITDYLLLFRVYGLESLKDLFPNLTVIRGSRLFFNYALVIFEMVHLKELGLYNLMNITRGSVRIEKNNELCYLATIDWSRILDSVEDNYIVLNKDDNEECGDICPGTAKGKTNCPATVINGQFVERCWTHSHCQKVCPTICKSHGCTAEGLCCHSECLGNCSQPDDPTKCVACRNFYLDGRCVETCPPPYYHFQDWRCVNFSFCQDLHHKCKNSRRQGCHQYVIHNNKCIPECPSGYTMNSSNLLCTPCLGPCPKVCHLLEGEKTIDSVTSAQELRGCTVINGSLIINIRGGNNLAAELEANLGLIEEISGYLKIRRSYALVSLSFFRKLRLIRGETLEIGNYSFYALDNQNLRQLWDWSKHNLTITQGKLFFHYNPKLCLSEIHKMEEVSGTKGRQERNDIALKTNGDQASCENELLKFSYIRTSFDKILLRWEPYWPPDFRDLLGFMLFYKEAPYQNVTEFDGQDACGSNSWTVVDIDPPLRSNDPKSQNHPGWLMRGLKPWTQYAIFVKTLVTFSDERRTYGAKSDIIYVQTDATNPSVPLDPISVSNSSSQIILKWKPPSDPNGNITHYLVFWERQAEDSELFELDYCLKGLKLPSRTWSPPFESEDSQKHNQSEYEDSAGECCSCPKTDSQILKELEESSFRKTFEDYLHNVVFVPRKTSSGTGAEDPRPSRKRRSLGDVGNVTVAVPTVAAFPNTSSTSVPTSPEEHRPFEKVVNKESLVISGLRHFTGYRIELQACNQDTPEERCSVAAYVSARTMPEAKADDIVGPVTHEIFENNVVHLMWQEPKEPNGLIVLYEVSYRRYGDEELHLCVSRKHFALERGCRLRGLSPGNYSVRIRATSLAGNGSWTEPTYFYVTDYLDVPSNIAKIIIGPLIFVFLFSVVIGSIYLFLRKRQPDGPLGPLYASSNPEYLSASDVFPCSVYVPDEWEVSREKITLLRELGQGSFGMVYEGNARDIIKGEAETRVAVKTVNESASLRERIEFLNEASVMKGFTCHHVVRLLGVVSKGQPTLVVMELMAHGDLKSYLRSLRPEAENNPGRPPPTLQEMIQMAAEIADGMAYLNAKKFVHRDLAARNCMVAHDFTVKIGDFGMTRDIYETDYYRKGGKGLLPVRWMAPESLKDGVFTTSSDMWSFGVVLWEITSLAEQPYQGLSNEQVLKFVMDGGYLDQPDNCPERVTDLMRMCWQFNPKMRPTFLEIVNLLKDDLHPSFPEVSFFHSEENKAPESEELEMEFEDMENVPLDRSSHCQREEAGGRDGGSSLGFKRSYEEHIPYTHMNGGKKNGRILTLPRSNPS

N#Cc1ccc2[nH]cc(CCCCN3CCC(NC(=O)c4cccc5c(C#N)c[nH]c45)CC3)c2c1 [compound 10, 3-Cyano-1H-indole-7-carboxylic acid {1-[4-(5-cyano-1H-indol-3-yl)butyl]piperidin-4-yl}amide]
no relevant interference with cellular insulin receptor signaling up to [1]: > 30 µM | cellular IGF-1R activity [2]: micromolar | biochemical IGF-1R activity [3]: nanomolar

N#Cc1ccc2[nH]cc(CCCCN3CCN(c4ccc5oc(C(N)=O)cc5c4)CC3)c2c1 [vilazodone, 5-{4-[4-(5-Cyano-3-indolyl)butyl]-1-piperazinyl}benzofuran-2-carboxamide]
IC50 [4]: 0.666 µM
